From patent US20210254272A1, “TEXTILES HAVING ANTIMICROBIAL PROPERTIES” (Livinguard AG, priority 2015, published 2021)

Test system: E. coli (ATCC 25922)
Experiment: AATCC Test Method 100-2012 antibacterial activity of the treated textile, after 25 washes and 12 abrasion cycles, contact time 60 minutes
Format: cell-based
Settings: for Performance Test-Log reduction of antimicrobial performance: pad process, 2 min
Description: The antibacterial activity of the textile was tested in accordance with AATCC Test Method 100-2012. Prior to the test, the fabric was cut into coupons of 2×4 inches and washed separately 25 times, and exposed to 12 abrasion cycles, as per US EPA protocol 90072PA4 (described further below). The tests were made against E. coli (ATCC 25922). Contact time was 60 minutes, after inoculating with 10^8 CFU per coupon.

CCCCCCCCCCCCCCCCCC[N+](C)(C)CCC[Si](OC)(OC)OC [Organosilane, dimethyloctadecyl[3-(trimethoxysilyl)propyl] ammonium chloride]
Performance Test-Log reduction of antimicrobial performance (single agent 5 gm/lit, curing 180° C.): 0.93 Log
Performance Test-Log reduction of antimicrobial performance (single agent 10 gm/lit, curing 120° C.): 0.38 Log
Performance Test-Log reduction of antimicrobial performance (single agent 10 gm/lit, curing 140° C.): 0.53 Log
Performance Test-Log reduction of antimicrobial performance (single agent 10 gm/lit, curing 150° C.): 0.62 Log
Performance Test-Log reduction of antimicrobial performance (single agent 10 gm/lit, curing 160° C.): 0.98 Log
Performance Test-Log reduction of antimicrobial performance (single agent 10 gm/lit, curing 180° C.): 2.21 Log
Log reduction of antimicrobial performance (pure cotton fabric, exhaust 80° C., 60 min, dosage 0.1% o.w.f): 0.81 Log
Log reduction of antimicrobial performance (pure cotton fabric, exhaust 80° C., 60 min, dosage 0.2% o.w.f): 1.67 Log
Log reduction of antimicrobial performance (pure cotton fabric, exhaust 80° C., 60 min, dosage 0.5% o.w.f): 1.83 Log
Log reduction of antimicrobial performance (pure cotton fabric, exhaust 80° C., 60 min, dosage 0.8% o.w.f): 2.17 Log
Log reduction of antimicrobial performance (pure cotton fabric, exhaust 80° C., 60 min, dosage 1.0% o.w.f): 2.56 Log
Log reduction of antimicrobial performance (pure cotton, exhaust 80° C., 1% o.w.f, 60 min, curing 180° C., curing dwell time 0.5 min): 0.3 Log
Log reduction of antimicrobial performance (pure cotton, exhaust 80° C., 1% o.w.f, 60 min, curing 180° C., curing dwell time 1.0 min): 1.1 Log
Log reduction of antimicrobial performance (pure cotton, exhaust 80° C., 1% o.w.f, 60 min, curing 180° C., curing dwell time 1.5 min): 1.8 Log
Log reduction of antimicrobial performance (pure cotton, exhaust 80° C., 1% o.w.f, 60 min, curing 180° C., curing dwell time 2.0 min): 2.5 Log
Log reduction of antimicrobial performance (pure cotton, exhaust 80° C., 1% o.w.f, 60 min, curing 180° C., curing dwell time 2.5 min): 2.4 Log
Log reduction of antimicrobial performance (pure cotton, exhaust 80° C., 1% o.w.f, 60 min, curing 180° C., curing dwell time 3.0 min): 1.4 Log
Log reduction of antimicrobial performance (pure polyester fabric, exhaust 80° C., 60 min, curing 180° C., curing dwell time 0.5 min): 0.4 Log
Log reduction of antimicrobial performance (pure polyester fabric, exhaust 80° C., 60 min, curing 180° C., curing dwell time 1.0 min): 1.2 Log
Log reduction of antimicrobial performance (pure polyester fabric, exhaust 80° C., 60 min, curing 180° C., curing dwell time 1.5 min): 1.7 Log
Log reduction of antimicrobial performance (pure polyester fabric, exhaust 80° C., 60 min, curing 180° C., curing dwell time 2.0 min): 2.75 Log
Log reduction of antimicrobial performance (pure polyester fabric, exhaust 80° C., 60 min, curing 180° C., curing dwell time 2.5 min): 2.45 Log
Log reduction of antimicrobial performance (pure polyester fabric, exhaust 80° C., 60 min, curing 180° C., curing dwell time 3.0 min): 1.3 Log
Log reduction of antimicrobial performance (pure polyester fabric, exhaust 80° C., 60 min, dosage 0.1% o.w.f): 0.72 Log
Log reduction of antimicrobial performance (pure polyester fabric, exhaust 80° C., 60 min, dosage 0.2% o.w.f): 1.65 Log
Log reduction of antimicrobial performance (pure polyester fabric, exhaust 80° C., 60 min, dosage 0.5% o.w.f): 1.75 Log
Log reduction of antimicrobial performance (pure polyester fabric, exhaust 80° C., 60 min, dosage 0.8% o.w.f): 2.16 Log
Log reduction of antimicrobial performance (pure polyester fabric, exhaust 80° C., 60 min, dosage 1.0% o.w.f): 2.58 Log
Log reduction of antimicrobial performance (solution dosage 0.10% o.w.f, exhaust temperature 40° C., process time 60 min): 0 Log
Log reduction of antimicrobial performance (solution dosage 0.10% o.w.f, exhaust temperature 60° C., process time 60 min): 0 Log
Log reduction of antimicrobial performance (solution dosage 0.10% o.w.f, exhaust temperature 65° C., process time 60 min): 0 Log
Log reduction of antimicrobial performance (solution dosage 0.10% o.w.f, exhaust temperature 70° C., process time 60 min): 0 Log
Log reduction of antimicrobial performance (solution dosage 0.10% o.w.f, exhaust temperature 75° C., process time 60 min): 0.63 Log
Log reduction of antimicrobial performance (solution dosage 0.10% o.w.f, exhaust temperature 80° C., process time 60 min): 0.78 Log
Log reduction of antimicrobial performance (solution dosage 0.10% o.w.f, exhaust temperature 85° C., process time 60 min): 0.81 Log
Log reduction of antimicrobial performance (solution dosage 0.10% o.w.f, exhaust temperature 90° C., process time 60 min): 0.82 Log
Log reduction of antimicrobial performance (solution dosage 0.10% o.w.f, exhaust temperature 95° C., process time 60 min): 0.82 Log
Log reduction of antimicrobial performance (solution dosage 0.20% o.w.f, exhaust temperature 40° C., process time 60 min): 0 Log
Log reduction of antimicrobial performance (solution dosage 0.20% o.w.f, exhaust temperature 60° C., process time 60 min): 0.09 Log
Log reduction of antimicrobial performance (solution dosage 0.20% o.w.f, exhaust temperature 65° C., process time 60 min): 0.10 Log
Log reduction of antimicrobial performance (solution dosage 0.20% o.w.f, exhaust temperature 70° C., process time 60 min): 0.17 Log
Log reduction of antimicrobial performance (solution dosage 0.20% o.w.f, exhaust temperature 75° C., process time 60 min): 0.92 Log
Log reduction of antimicrobial performance (solution dosage 0.20% o.w.f, exhaust temperature 80° C., process time 60 min): 1.52 Log
Log reduction of antimicrobial performance (solution dosage 0.20% o.w.f, exhaust temperature 85° C., process time 60 min): 1.65 Log
Log reduction of antimicrobial performance (solution dosage 0.20% o.w.f, exhaust temperature 90° C., process time 60 min): 1.65 Log
Log reduction of antimicrobial performance (solution dosage 0.20% o.w.f, exhaust temperature 95° C., process time 60 min): 1.65 Log
Log reduction of antimicrobial performance (solution dosage 0.50% o.w.f, exhaust temperature 40° C., process time 60 min): 0 Log
Log reduction of antimicrobial performance (solution dosage 0.50% o.w.f, exhaust temperature 60° C., process time 60 min): 0.17 Log
Log reduction of antimicrobial performance (solution dosage 0.50% o.w.f, exhaust temperature 65° C., process time 60 min): 0.18 Log
Log reduction of antimicrobial performance (solution dosage 0.50% o.w.f, exhaust temperature 70° C., process time 60 min): 0.19 Log
Log reduction of antimicrobial performance (solution dosage 0.50% o.w.f, exhaust temperature 75° C., process time 60 min): 1.23 Log
Log reduction of antimicrobial performance (solution dosage 0.50% o.w.f, exhaust temperature 80° C., process time 60 min): 1.78 Log
Log reduction of antimicrobial performance (solution dosage 0.50% o.w.f, exhaust temperature 85° C., process time 60 min): 1.82 Log
Log reduction of antimicrobial performance (solution dosage 0.50% o.w.f, exhaust temperature 90° C., process time 60 min): 1.83 Log
Log reduction of antimicrobial performance (solution dosage 0.50% o.w.f, exhaust temperature 95° C., process time 60 min): 1.83 Log
Log reduction of antimicrobial performance (solution dosage 0.80% o.w.f, exhaust temperature 40° C., process time 60 min): 0 Log
Log reduction of antimicrobial performance (solution dosage 0.80% o.w.f, exhaust temperature 60° C., process time 60 min): 0.23 Log
Log reduction of antimicrobial performance (solution dosage 0.80% o.w.f, exhaust temperature 65° C., process time 60 min): 0.24 Log
Log reduction of antimicrobial performance (solution dosage 0.80% o.w.f, exhaust temperature 70° C., process time 60 min): 0.36 Log
Log reduction of antimicrobial performance (solution dosage 0.80% o.w.f, exhaust temperature 75° C., process time 60 min): 1.32 Log
Log reduction of antimicrobial performance (solution dosage 0.80% o.w.f, exhaust temperature 80° C., process time 60 min): 2.13 Log
Log reduction of antimicrobial performance (solution dosage 0.80% o.w.f, exhaust temperature 85° C., process time 60 min): 2.23 Log
Log reduction of antimicrobial performance (solution dosage 0.80% o.w.f, exhaust temperature 90° C., process time 60 min): 2.34 Log
Log reduction of antimicrobial performance (solution dosage 0.80% o.w.f, exhaust temperature 95° C., process time 60 min): 2.34 Log
Log reduction of antimicrobial performance (solution dosage 1.00% o.w.f, exhaust temperature 40° C., process time 60 min): 0 Log
Log reduction of antimicrobial performance (solution dosage 1.00% o.w.f, exhaust temperature 60° C., process time 60 min): 0.28 Log
Log reduction of antimicrobial performance (solution dosage 1.00% o.w.f, exhaust temperature 65° C., process time 60 min): 0.29 Log
Log reduction of antimicrobial performance (solution dosage 1.00% o.w.f, exhaust temperature 70° C., process time 60 min): 0.42 Log
Log reduction of antimicrobial performance (solution dosage 1.00% o.w.f, exhaust temperature 75° C., process time 60 min): 1.45 Log
Log reduction of antimicrobial performance (solution dosage 1.00% o.w.f, exhaust temperature 80° C., process time 60 min): 2.56 Log
Log reduction of antimicrobial performance (solution dosage 1.00% o.w.f, exhaust temperature 85° C., process time 60 min): 2.69 Log
Log reduction of antimicrobial performance (solution dosage 1.00% o.w.f, exhaust temperature 90° C., process time 60 min): 2.71 Log
Log reduction of antimicrobial performance (solution dosage 1.00% o.w.f, exhaust temperature 95° C., process time 60 min): 2.71 Log
